Series [1] can be described thus: viscosity of solvents, rotational viscometer. In kind it is physicochemical. Conditions: 25° C.
In series [2] the test system is mesothelial cells. The following applies: human. As to the method: In addition to 10% fetal calf serum (PPA Laboratories, Austria) an epidermal growth factor (5 ng/ml, Sigma-Aldrich, Germany) and hydrocortisone (400 ng/ml, Sigma-Aldrich, Germany) were added to the medium. Furthermore, the cells were passaged at a confluence of about 80% and used for tests up to a passage of 20.
The cytotoxicity of the solvent was determined by an ATP-based assay (ATPlite, Perkin Elmer). […] After the incubation period, the medium was sucked off, the cells were washed once with PBS, 50 μl PBS per well was added, and the cell viability was determined according to the manufacturer's instructions. […] For each point in time, the concentration of the solvent was plotted against the measured cell viability (mean values±standard deviation from n=4 runs) and a non-linear standard function was adapted: […]
The LD50 values were taken from the estimated values of the plotted regression curve. It is the concentration at which a cell viability of still 50% could be measured.
In addition, the influence of the solvent on the metabolic cell viability was studied for a period of 11 hours. Metabolic cell viability is determined by the ATP value of the cells, which is a measure of viability. […]

For series [3] the following is noted: solubility of PLGA in the solvent, Matschke et al. 2002; cited from earlier work.
The conditions of series [4]: in vivo; cited from earlier work.
For series [5], the system named is mouse. Conditions: i.v., 20% solution; cited from earlier work.
Series [6] relates to rat. Conditions: i.v., 40% DMI in isotonic saline solution (v/v); cited from earlier work.

As to `CCOC(=O)[C@H](C)O` [Ethyl l-lactate], the “η (kinematic viscosity)” value in series [1] is 2.74 mPas.
As to “tetrahydrofurfuryl alcohol polyethyleneglycol [tetraglycol]”, the “η (kinematic viscosity)” value in series [1] is 16.6 mPas.
For glycerol formal, the “η (kinematic viscosity)” value in series [1] was found to be 14.4 mPas. In series [2], the “tolerance (LD50) higher by a factor compared to tetraglycol” value was determined as 400. The PLGA solubility in series [3] was 33%.
As for `CC(=O)OCC(COC(C)=O)OC(C)=O` [Triacetin], in series [1], the “η (kinematic viscosity)” value stood at 18.75 mPas. Moreover, the PLGA solubility in series [3] is 35%.
In the case of “Alteplase: recombinantly produced t-PA protein”, the half-life in plasma in series [4] is 3 to 6 min.
Regarding `CO[C@H]1CO[C@H]2[C@@H]1OC[C@H]2OC` [DMI, Dimethyl isosorbide], in series [1], the “η (kinematic viscosity)” value came out at 8.16 mPas. Further, the PLGA solubility in series [3] is 41%. Moreover, the LD50 in series [5] was 6.9 g/kg body weight; in series [6], 5.4 g/kg body weight.
